# Laboratory results taken from patent US20250215010A1, “DIAZABICYCLOOCTANE DERIVATIVES USEFUL AS MATRIX METALLOPROTEINASE INHIBITORS” (VASA THERAPEUTICS SPOLKA Z OGRANICZONA ODPOWIEDZIALNOSCIA, priority 2022, published 2025).
# Read-outs that look alike come from different tables or passages of the source.
# Tests used:
# Type in all cases: biochemical
# [1] = target: ADAM17 (TACE) (Homo sapiens, UniProt P78536); test: TACE fluorometric inhibition assay (Enzo kit BML-AK310)
# Protocol: (§1) The inhibitory activities of the compounds of the invention were assessed in 96-well microplate format using MMP1, MMP2, MMP9 and MMP13 colorimetric assay kits and TACE fluorometric assay kit from Enzo Life Sciences, Inc. The inhibitory effect of the compounds of the invention on ADAM10 activity were evaluated in 96-well microplate format using fluorometric assay from AnaSpec, Inc.
# The TACE Fluorometric Drug Discovery Kit (catalog #BML-AK310) is a complete assay system designed to screen ADAM17 (TACE) inhibitors using a quenched fluorogenic peptide: Mca-PLAQAV-Dpa-RSSSR—NH2. Mca fluorescence is quenched by the Dpa group until cleavage by proteases separates the two moieties leading to an increase in Mca fluorescence.
# The inhibitory activity of the compounds of the invention against TACE was tested according to the manufacturer's assay protocol and the fluorescence was monitored at excitation/emission wavelengths=320 nm/420 nm using Tecan Infinite® 200 Pro F Nano^+ microplate reader.
# (§2) The normalized values were analyzed using GraphPadPrism 9 for Windows (GraphPad Software, San Diego, CA, USA) software by plotting inhibition curves and determining the IC50 values (in nM).
# [2] = target: T1, MMP1 (Homo sapiens, UniProt P03956); test: MMP-1 colorimetric inhibition assay (Enzo kit BML-AK404)
# T1 sequence (P03956 100-269 limits assumed): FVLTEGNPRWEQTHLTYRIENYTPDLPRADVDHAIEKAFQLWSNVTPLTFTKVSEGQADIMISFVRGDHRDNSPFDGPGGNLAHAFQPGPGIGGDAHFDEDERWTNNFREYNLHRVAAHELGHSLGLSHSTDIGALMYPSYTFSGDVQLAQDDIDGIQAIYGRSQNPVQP
# Protocol: as §1
# (§3) The MMP-1 Colorimetric Drug Discovery Kit (catalog #BML-AK404) is a complete assay system designed to screen inhibitors of matrix metalloproteinase-1 using a thiopeptide as a chromogenic substrate (Ac-PLG-[2-mercapto-4-methylpentanoyl]-LG-OC2H5). The MMP cleavage site peptide bond is replaced by a thioester bond in the thiopeptide. Hydrolysis of this bond by an MMP produces a sulfhydryl group, which reacts with DTNB [5,5′-dithiobis(2-nitrobenzoic acid), Ellman's reagent] to form 2-nitro-5-thiobenzoic acid, that can be detected spectrophotometrically.
# (§4) The inhibitory activities of the compounds of the invention against MMP1, MMP2, MMP9 and MMP13 were tested according to the manufacturer's assay protocols and the absorbance at 415 nm was monitored using the Tecan Infinite® 200 Pro F Nano^+ microplate reader.
# as §2
# [3] = target: T2, MMP2 (Homo sapiens, UniProt P08253); test: MMP-2 colorimetric inhibition assay (Enzo kit BML-AK408)
# T2 sequence (P08253 110-660): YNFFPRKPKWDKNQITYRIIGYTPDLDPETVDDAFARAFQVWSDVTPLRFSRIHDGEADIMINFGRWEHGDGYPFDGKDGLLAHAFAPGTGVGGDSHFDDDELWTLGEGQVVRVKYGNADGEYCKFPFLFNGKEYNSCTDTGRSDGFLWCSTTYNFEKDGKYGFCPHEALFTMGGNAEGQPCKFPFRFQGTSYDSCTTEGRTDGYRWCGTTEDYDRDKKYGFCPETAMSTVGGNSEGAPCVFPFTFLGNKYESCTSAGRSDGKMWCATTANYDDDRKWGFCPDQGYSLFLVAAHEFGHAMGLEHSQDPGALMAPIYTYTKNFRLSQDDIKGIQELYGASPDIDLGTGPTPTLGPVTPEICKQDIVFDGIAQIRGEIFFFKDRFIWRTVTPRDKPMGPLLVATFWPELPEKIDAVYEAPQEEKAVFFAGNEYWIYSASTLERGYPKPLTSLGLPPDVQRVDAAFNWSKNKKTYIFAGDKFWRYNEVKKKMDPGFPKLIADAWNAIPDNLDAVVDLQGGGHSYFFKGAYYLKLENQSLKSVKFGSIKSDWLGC
# Protocol: as §1
# as §3, with “MMP-2” for “MMP-1”, “#BML-AK408)” for “#BML-AK404)”, “screen MMP-2” for “screen”, “inhibitors” for “inhibitors of matrix metalloproteinase-1”
# as §4, §2
# [4] = target: T3, MMP13 (Homo sapiens, UniProt P45452); test: MMP-13 colorimetric inhibition assay (Enzo kit BML-AK412)
# T3 construct: purchased Enzo Life Sciences, Inc. BML-AK412
# Protocol: as §1
# as §3, with “MMP-13” for “MMP-1”, “#BML-AK412)” for “#BML-AK404)”, “metalloproteinase-13” for “metalloproteinase-1”
# as §4, §2
# [5] = target: MMP9 (Homo sapiens, UniProt P14780); test: MMP-9 colorimetric inhibition assay (Enzo kit BML-AK410)
# Protocol: as §1
# as §3, with “MMP-9” for “MMP-1”, “#BML-AK410)” for “#BML-AK404)”, “metalloproteinase-9” for “metalloproteinase-1”
# as §4, §2
# [6] = quenched fluorogenic peptide, ex/em 320/420 nm, read-out: TACE IC50 class
# [7] = thiopeptide substrate, absorbance 415 nm, read-out: MMP 1 IC50 class
# [8] = thiopeptide substrate, absorbance 415 nm, read-out: MMP 2 IC50 class
# [9] = thiopeptide substrate, absorbance 415 nm, read-out: MMP 13 IC50 class
# [10] = thiopeptide substrate, absorbance 415 nm, read-out: MMP 9 IC50 class
# Sequence of MMP9 (P14780 94-707): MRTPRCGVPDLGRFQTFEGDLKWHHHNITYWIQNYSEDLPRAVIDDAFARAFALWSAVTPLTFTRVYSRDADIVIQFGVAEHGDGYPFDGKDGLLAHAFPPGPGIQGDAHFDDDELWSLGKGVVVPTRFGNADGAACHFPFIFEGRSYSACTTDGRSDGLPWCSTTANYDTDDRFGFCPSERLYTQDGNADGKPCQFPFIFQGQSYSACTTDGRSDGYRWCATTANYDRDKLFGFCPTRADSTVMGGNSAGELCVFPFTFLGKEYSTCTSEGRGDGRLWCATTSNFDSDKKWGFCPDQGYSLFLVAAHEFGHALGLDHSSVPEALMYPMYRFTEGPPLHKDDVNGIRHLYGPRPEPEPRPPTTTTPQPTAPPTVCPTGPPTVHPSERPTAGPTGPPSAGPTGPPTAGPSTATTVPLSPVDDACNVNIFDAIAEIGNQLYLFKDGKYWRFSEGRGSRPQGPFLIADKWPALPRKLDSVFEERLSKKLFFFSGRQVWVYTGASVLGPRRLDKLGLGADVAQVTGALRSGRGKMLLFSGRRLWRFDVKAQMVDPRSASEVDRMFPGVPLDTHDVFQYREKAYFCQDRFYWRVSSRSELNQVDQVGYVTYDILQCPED
# Sequence of ADAM17 (TACE) (P78536 215-477 limits assumed): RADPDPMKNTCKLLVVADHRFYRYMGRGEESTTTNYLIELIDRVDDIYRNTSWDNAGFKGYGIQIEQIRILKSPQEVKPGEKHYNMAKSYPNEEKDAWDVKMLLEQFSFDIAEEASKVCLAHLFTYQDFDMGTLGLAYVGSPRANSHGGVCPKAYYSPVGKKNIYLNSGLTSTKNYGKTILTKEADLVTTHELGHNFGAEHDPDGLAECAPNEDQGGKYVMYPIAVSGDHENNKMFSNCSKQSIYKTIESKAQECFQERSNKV
SMILES,"IC50 [1, 6] [nM]","IC50 [2, 7] [nM]","IC50 [3, 8] [nM]","IC50 [4, 9] [nM]","IC50 [5, 10] [nM]",IC50 [1] [nM],IC50 [2] [nM],IC50 [3] [nM],IC50 [4] [nM],IC50 [5] [nM]
"COCCOC(=O)N1[C@@H]2CC[C@H]1[C@H](C(=O)NO)N(S(=O)(=O)c1ccc(Oc3cncc(F)c3)nc1)C2 [Example 23, 2-methoxyethyl (1S,2R,5R)-3-((6-((5-fluoropyridin-3-yl)oxy)pyridin-3-yl)-sulfonyl)-2-(hydroxycarbamoyl)-3,8-diaza-bicyclo[3.2.1]octane-8-carboxylate]",1000 to 10000,50 to 1000,< 50,50 to 1000,50 to 1000,,,,,
"COCCOC(=O)N1[C@@H]2CC[C@H]1[C@H](C(=O)NO)N(S(=O)(=O)c1ccc(Oc3ccc(C(C)(C)O)cc3)nc1)C2 [Example 26, 2-methoxyethyl (1S,2R,5R)-2-(hydroxycarbamoyl)-3-((6-(4-(2-hydroxy-propan-2-yl)-phenoxy)pyridin-3-yl)sulfonyl)-3,8-diazabicyclo[3.2.1]-octane-8-carboxylate]",1000 to 10000,> 10000,< 50,50 to 1000,50 to 1000,,,,,
"COCCOC(=O)N1[C@@H]2CC[C@H]1[C@H](C(=O)NO)N(S(=O)(=O)c1ccc(Oc3cnc(OC)nc3)nc1)C2 [Example 27, 2-methoxyethyl (1S,2R,5R)-2-(hydroxycarbamoyl)-3-((6-((2-methoxy-pyrimidin-5-yl)oxy)-pyridin-3-yl)-sulfonyl)-3,8-diaza-bicyclo[3.2.1]octane-8-carboxylate]",1000 to 10000,> 10000,< 50,50 to 1000,50 to 1000,,,,,
"CCn1cc(Oc2ccc(S(=O)(=O)N3C[C@H]4CC[C@@H]([C@@H]3C(=O)NO)N4C(=O)OCCOC)cn2)cn1 [Example 35, 2-methoxyethyl (1S,2R,5R)-3-((6-((1-ethyl-1H-pyrazol-4-yl)-oxy)pyridin-3-yl)-sulfonyl)-2-(hydroxycarbamoyl)-3,8-diaza-bicyclo[3.2.1]octane-8-carboxylate]",50 to 1000,50 to 1000,< 50,< 50,< 50,,,,,
"COCCOC(=O)N1[C@@H]2CC[C@H]1[C@H](C(=O)NO)N(S(=O)(=O)c1ccc(Oc3cnn(C(C)C)c3)nc1)C2 [Example 37, 2-methoxyethyl (1S,2R,5R)-2-(hydroxycarbamoyl)-3-((6-((1-isopropyl-1H-pyrazol-4-yl)-oxy)pyridin-3-yl)-sulfonyl)-3,8-diazabicyclo-[3.2.1]octane-8-carboxylate]",50 to 1000,1000 to 10000,50 to 1000,50 to 1000,50 to 1000,,,,,
"COCCOC(=O)N1[C@@H]2CC[C@H]1[C@H](C(=O)NO)N(S(=O)(=O)c1ccc(Oc3cnn(CC(C)C)c3)nc1)C2 [Example 38, 2-methoxyethyl (1S,2R,5R)-2-(hydroxycarbamoyl)-3-((6-((1-isobutyl-1H-pyrazol-4-yl)oxy)pyridin-3-yl)sulfonyl)-3,8-diazabicyclo-[3.2.1]octane-8-carboxylate]",50 to 1000,1000 to 10000,50 to 1000,50 to 1000,50 to 1000,,,,,
"COCCOC(=O)N1[C@@H]2CC[C@H]1[C@H](C(=O)NO)N(S(=O)(=O)c1ccc(Oc3cnn(-c4ccc(F)cc4)c3)nc1)C2 [Example 40, 2-methoxyethyl (1S,2R,5R)-3-((6-((1-(4-fluorophenyl)-1H-pyrazol-4-yl)oxy)pyridin-3-yl)sulfonyl)-2-(hydroxycarbamoyl)-3,8-diazabicyclo-[3.2.1]octane-8-carboxylate]",50 to 1000,50 to 1000,< 50,< 50,< 50,,,,,
"COCCOC(=O)N1[C@@H]2CC[C@H]1[C@H](C(=O)NO)N(S(=O)(=O)c1cc(F)c(Oc3cnn(C)c3)c(F)c1)C2 [Example 42, 2-methoxyethyl (1S,2R,5R)-3-((3,5-difluoro-4-((1-methyl-1H-pyrazol-4-yl)oxy)phenyl)sulfonyl)-2-(hydroxycarbamoyl)-3,8-diazabicyclo[3.2.1]octane-8-carboxylate]",50 to 1000,1000 to 10000,50 to 1000,50 to 1000,50 to 1000,,,,,
"COCCOC(=O)N1[C@@H]2CC[C@H]1[C@H](C(=O)NO)N(S(=O)(=O)c1ccc(Oc3ccc(OCF)cc3)nc1)C2 [Example 43, 2-methoxyethyl (1S,2R,5R)-3-((6-(4-(fluoromethoxy)phenoxy)pyridin-3-yl)sulfonyl)-2-(hydroxycarbamoyl)-3,8-diazabicyclo[3.2.1]octane-8-carboxylate]",1000 to 10000,1000 to 10000,< 50,< 50,< 50,,,,,
"COCCOC(=O)N1[C@@H]2CC[C@H]1[C@H](C(=O)NO)N(S(=O)(=O)N1CCC(Oc3ccc(Cl)cc3)C1)C2 (stereo partly drawn) [Example 46, 2-methoxyethyl (1S,2R,5R)-3-((3-(4-chloro-phenoxy)-pyrrolidin-1-yl)-sulfonyl)-2-(hydroxy-carbamoyl)-3,8-diazabicyclo-[3.2.1]octane-8-carboxylate]",,,,,,50 to 1000,> 10000,50 to 1000,50 to 1000,50 to 1000
"COCCOC(=O)N1[C@@H]2CC[C@H]1[C@H](C(=O)NO)N(S(=O)(=O)N1CCC(Oc3ccc(F)cc3)C1)C2 (stereo partly drawn) [Example 47, 2-methoxyethyl (1S,2R,5R)-3-((3-(4-fluoro-phenoxy)-pyrrolidin-1-yl)-sulfonyl)-2-(hydroxy-carbamoyl)-3,8-diazabicyclo-[3.2.1]octane-8-carboxylate]",,,,,,50 to 1000,> 10000,1000 to 10000,1000 to 10000,1000 to 10000
"COCCOC(=O)N1[C@@H]2CC[C@H]1[C@H](C(=O)NO)N(S(=O)(=O)N1CCC(Oc3ccnc(C(F)(F)F)c3)CC1)C2 [Example 49, 2-methoxyethyl (1S,2R,5R)-2-(hydroxy-carbamoyl)-3-((4-((2-(trifluoro-methyl)pyridin-4-yl)oxy)-piperidin-1-yl)-sulfonyl)-3,8-diazabicyclo-[3.2.1]octane-8-carboxylate]",1000 to 10000,> 10000,50 to 1000,50 to 1000,50 to 1000,,,,,
